Assay results: patent EP0721336B1, “BENZAZOLE COMPOUNDS FOR USE IN THERAPY” (CANCER RESEARCH CAMPAIGN TECHNOLOGY LIMITED, priority 1993, dated 1995)
Where two headings read alike, the source gives them in different places. Marks after values point to notes of the source that are not given here.

What was measured:
MCF-7 mammary carcinoma [1] = details: mouse, in vivo, ip, 120 mg/kg
[2] = tested on: human MDA 468 xenograft tumours; experiment: In vivo activity against MDA 468 xenograft; design: species or system nude mice
Procedure: The effect of CJM 126 (0.1, 0.01 and 0.001mg/kg) has also been investigated in nude mice bearing human MDA 468 xenograft tumours.

EGFR tyrosine kinase = EGFR tyrosine kinase (Homo sapiens, UniProt P00533); experiment: Western blot analyses with anti-phosphotyrosine primary antibody; type: cell-based; details: unstimulated or EGF stimulated
[3] = Lethal dose (LD50) determination; type: in vivo
[4] = tested on: P388R8/22 (multidrug resistant) cells; experiment: In vitro cytotoxicity assay; type: cell-based
Procedure: (§1) In carrying out the above in vitro studies, the method used for conducting the cytotoxicity assays was generally substantially as follows: • Cells were maintained in a continuous logarithmic culture in Dulbecco's medium supplemented with 10% fetal calf serum and penicillin (100 IU/ml) and streptomycin (100 µg/ml). The cells were mildly trypsinized for passage and for use in assays. On day zero, 100µl of trypsinized tumour cells (1 x 10^4/ml) were plated in the wells of 96-well flat-bottom microtiter plates. […] On day two 50µl of the highest drug concentration was added to the wells of column 12 and from there serially diluted 3-fold to column 1 by serial transfer of 50µl using an 8-channel micropipette. The final volume of column 1 was adjusted to 100µl. No additions were made to the wells of rows A and B, which served as controls. The plates were further incubated for 5 days at 37°C and 5% CO2 in air. Each compound was tested in duplicate. • On day 7 the test was terminated by the addition of 100µl saline containing 0.002% w/v propidium iodide (Sigma), 0.3% drawing ink (Staedtler "Marsmatic 745" - Trade Mark) and 0.5% Triton X-100. The plates were kept at 4°C overnight before reading on an inverted microscope equipped with an automated scanning stage. Fluorescence intensity was measured in arbitrary units by a photomultiplier. […]

P388 cells = experiment: In vitro cytotoxicity assay; type: cell-based; details: Mus musculus
Procedure: as §1

[5] = tested on: MCF-7 mammary carcinoma cells; experiment: In vitro cytotoxicity assay (cell growth, propidium iodide fluorescence); type: cell-based, human; details: for IC50: Homo sapiens; for effect on cell growth: later series of experiments
From the text: (§2) This is illustrated in Tables 1 and 2 at the end of the present description which show in vitro test results obtained in various sets of experiments for the cytotoxic activity of this compound CJM 126 against a range of human tumour cell lines, expressed in terms of IC50 values (concentration or dosage required to reduce cell growth or proliferation by 50%) calculated from dose-effect curves plotted for cultures of the cells in question.
(§3) In carrying out the above in vitro studies, the method used for conducting the cytotoxicity assays was generally substantially as follows: • Cells were maintained in a continuous logarithmic culture in Dulbecco's medium supplemented with 10% fetal calf serum and penicillin (100 IU/ml) and streptomycin (100 µg/ml). The cells were mildly trypsinized for passage and for use in assays. On day zero, 100µl of trypsinized tumour cells (1 x 10^4/ml) were plated in the wells of 96-well flat-bottom microtiter plates. […] On day two 50µl of the highest drug concentration was added to the wells of column 12 and from there serially diluted 3-fold to column 1 by serial transfer of 50µl using an 8-channel micropipette. The final volume of column 1 was adjusted to 100µl. No additions were made to the wells of rows A and B, which served as controls. The plates were further incubated for 5 days at 37°C and 5% CO2 in air. Each compound was tested in duplicate. • On day 7 the test was terminated by the addition of 100µl saline containing 0.002% w/v propidium iodide (Sigma), 0.3% drawing ink (Staedtler "Marsmatic 745" - Trade Mark) and 0.5% Triton X-100. The plates were kept at 4°C overnight before reading on an inverted microscope equipped with an automated scanning stage. Fluorescence intensity was measured in arbitrary units by a photomultiplier. An HP-87 computer controlled the movement of the stage and also collected and processed the data from the multiplier. • For each compound tested a dose-response curve was obtained and the IC50 value (the drug concentration at 50% inhibition of cell growth) was calculated.

[6] = tested on: MDA 468 mammary (ER-/EGFR+); experiment: In vitro cytotoxicity assay; type: cell-based, human; details: Homo sapiens
From the text: as §2, §3

A2780 ovarian carcinoma = experiment: In vitro cytotoxicity assay; type: cell-based, human
From the text: as §2, §3

MCF-7 mammary carcinoma [7] = experiment: In vivo activity against MCF-7 tumour implanted s.c.; details: i.p., 120 mg/kg/day, qd 6, 13, 20
EGFR = EGFR (Homo sapiens, UniProt P00533); experiment: Displacement of iodinated EGF from EGFR; type: binding; details: 1µM, 10µM and 100µM
Sequence of EGFR (P00533 25-1210): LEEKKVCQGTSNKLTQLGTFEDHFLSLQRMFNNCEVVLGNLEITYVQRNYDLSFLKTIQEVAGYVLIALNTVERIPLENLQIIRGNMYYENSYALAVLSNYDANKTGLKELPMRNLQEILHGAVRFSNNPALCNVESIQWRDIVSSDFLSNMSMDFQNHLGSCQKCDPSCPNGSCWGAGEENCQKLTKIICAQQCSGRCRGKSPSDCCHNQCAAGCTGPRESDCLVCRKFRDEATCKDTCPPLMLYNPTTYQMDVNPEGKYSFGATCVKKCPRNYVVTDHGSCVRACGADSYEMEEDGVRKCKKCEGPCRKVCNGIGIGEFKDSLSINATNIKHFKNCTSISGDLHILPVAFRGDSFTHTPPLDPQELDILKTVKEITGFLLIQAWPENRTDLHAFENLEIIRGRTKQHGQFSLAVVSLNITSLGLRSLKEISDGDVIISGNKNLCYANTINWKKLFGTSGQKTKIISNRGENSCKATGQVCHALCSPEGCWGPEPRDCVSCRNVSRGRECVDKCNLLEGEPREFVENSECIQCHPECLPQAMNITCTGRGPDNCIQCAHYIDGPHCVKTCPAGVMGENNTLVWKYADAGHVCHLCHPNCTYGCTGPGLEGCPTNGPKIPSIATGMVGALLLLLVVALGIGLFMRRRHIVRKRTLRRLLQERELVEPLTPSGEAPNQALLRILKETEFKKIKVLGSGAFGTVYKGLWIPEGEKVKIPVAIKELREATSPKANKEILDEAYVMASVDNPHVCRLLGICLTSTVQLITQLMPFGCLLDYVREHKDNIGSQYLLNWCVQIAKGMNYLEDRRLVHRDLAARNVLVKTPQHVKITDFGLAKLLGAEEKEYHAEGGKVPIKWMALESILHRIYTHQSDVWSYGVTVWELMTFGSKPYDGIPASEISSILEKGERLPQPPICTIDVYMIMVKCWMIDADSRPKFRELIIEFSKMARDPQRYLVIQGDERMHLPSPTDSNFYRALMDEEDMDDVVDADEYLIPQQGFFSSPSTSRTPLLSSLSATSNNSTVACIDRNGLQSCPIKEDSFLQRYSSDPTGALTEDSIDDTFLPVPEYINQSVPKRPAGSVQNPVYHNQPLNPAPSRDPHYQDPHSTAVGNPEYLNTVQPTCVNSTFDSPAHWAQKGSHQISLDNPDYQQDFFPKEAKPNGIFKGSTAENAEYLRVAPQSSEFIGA

Sequence of EGFR tyrosine kinase (P00533 25-1210): as above

Nc1ccc(-c2nc3ccccc3s2)cc1 [CJM 126, 2-(4-aminophenyl)benzothiazole]
signs of toxicity (MCF-7 mammary carcinoma [1]): no signs of severe toxicity | Tumour weight (g) ([2]; 0.1mg/kg daily): .30 + .07 g | Cross section tumour area (mm) ([2]; 0.1mg/kg daily, Day 5): 97.75 ± 9.55 mm | Cross section tumour area (mm) ([2]; 0.1mg/kg daily, Day 12): 71.07 ± 7.2 mm | Cross section tumour area (mm) ([2]; 0.1mg/kg daily, Day 15): 82.17 + 1058 mm | Cross section tumour area (mm) ([2]; 0.1mg/kg daily, Day 19): 88.84 ± 3.69 mm | Cross section tumour area (mm) ([2]; 0.1mg/kg daily, Day 22): 105.66 ± 5.49 mm | Cross section tumour area (mm) ([2]; 0.1mg/kg daily, Day 26): 124.55 ± 7.90 mm | Cross section tumour area (mm) ([2]; 0.1mg/kg daily, Day 29): 182.15 ± 14.79 mm | Cross section tumour area (mm) ([2]; 0.1mg/kg daily, Day 32): 196.66 ± 18.65 mm | Tumour weight (g) ([2]; .001mg/kg daily): .19 + .08 g | Cross section tumour area (mm) ([2]; .001mg/kg daily, Day 5): 85.54 ± 19.44 mm | Cross section tumour area (mm) ([2]; .001mg/kg daily, Day 12): 52.93 ± 2.65 mm | Cross section tumour area (mm) ([2]; .001mg/kg daily, Day 15): 67.81 ± 12.92 mm | Cross section tumour area (mm) ([2]; .001mg/kg daily, Day 19): 64.8 ± 17.35 mm | Cross section tumour area (mm) ([2]; .001mg/kg daily, Day 22): 75.12 ± 20.05 mm | Cross section tumour area (mm) ([2]; .001mg/kg daily, Day 26): 81.53 ± 26.16 mm | Cross section tumour area (mm) ([2]; .001mg/kg daily, Day 29): 114.65 + 3457 mm | Cross section tumour area (mm) ([2]; .001mg/kg daily, Day 32): 129.06 ± 32.08 mm | Tumour weight (g) ([2]; .01mg/kg daily): .29 + .15 g | Cross section tumour area (mm) ([2]; .01mg/kg daily, Day 5): 120.78 ± 5.83 mm | Cross section tumour area (mm) ([2]; .01mg/kg daily, Day 12): 71.65 ± 11.67 mm | Cross section tumour area (mm) ([2]; .01mg/kg daily, Day 15): 78.21 ± 6.69 mm | Cross section tumour area (mm) ([2]; .01mg/kg daily, Day 19): 98.03 ± 33.51 mm | Cross section tumour area (mm) ([2]; .01mg/kg daily, Day 22): 117.02 ± 42.1 mm | Cross section tumour area (mm) ([2]; .01mg/kg daily, Day 26): 131.58 ± 23.41 mm | Cross section tumour area (mm) ([2]; .01mg/kg daily, Day 29): 164.90 ± 37.18 mm | Cross section tumour area (mm) ([2]; .01mg/kg daily, Day 32): 191.68 ± 45.65 mm | inhibition of EGFR tyrosine kinase activity (EGFR tyrosine kinase): no apparent inhibition | LD50 ([3]; daily administration over 3 consecutive days): > 31 mg/kg/day | LD50 ([3]; male, DBA/2, mouse, in vivo, ip, single i.p. dose, read-out: LD50): ~125 mg/kg | IC50 [4]: 52000 nM | IC50 (P388 cells): 27000 nM | IC50 ([5]; MCF7, 1st series of experiments, initial decrease in cell growth, read-out: IC50): ~0.002 µg/mL | IC50 ([5]; MCF7, MCF 7-wt, phase 1, after drug removal, read-out: observed IC50 after drug removal): 2.18 nM | IC50 ([5]; MCF7, MCF 7-wt, read-out: estimated IC50): ~2.9 nM | IC50 ([5]; MCF7, first series of experiments, second decrease at even greater doses, read-out: IC50 of second decrease (biphasic dose response)): ~2 µg/mL | IC50 ([5]; MCF-wt, column A, read-out: MCF-wt A IC50 at sub-micromolar concentrations): 3 nM | inhibition of growth ([5]; MCF 7-wt, 1% FCS, presence of EGF, all concentrations 1nM-10µM): greater than 85% | times more sensitive than other human cell lines tested ([5]; first series of experiments, Table 1): about 3000 times | estimated IC50 ([5]; in the presence of 1% FCS): picomolar range | proliferation of colonies (2nd phase) ([5]; in the presence of 1% FCS, 3, 10, 30µM): no proliferation of colonies | effect on cell growth ([5]; 30nM and 100nM): maximum growth inhibition | effect on cell growth ([5]; exposure to 1µM, 3µM and 10µM): loss of growth arrest | IC50 ([6]; MDA 468, read-out: estimated IC50): ~1.6 nM | IC50 ([6]; column A, read-out: MDA 468 A IC50 at sub-micromolar concentrations): 1.6 nM | IC50 ([6]; 2nd series of experiments, read-out: IC50): 1.6 nM | IC50 (A2780 ovarian carcinoma; 2nd series of experiments): 43000 nM | IC50 (A2780 ovarian carcinoma; Homo sapiens, A2780, 1st series of experiments): 8.83 µg/mL | IC50 (A2780 ovarian carcinoma; Homo sapiens, A2780, 2nd series of experiments): 39000 nM | Relative tumour volume (T/C%) (MCF-7 mammary carcinoma [7]; d9): 84% | Relative tumour volume (T/C%) (MCF-7 mammary carcinoma [7]; d13): 47* % | Relative tumour volume (T/C%) (MCF-7 mammary carcinoma [7]; d20): 38* % | Relative tumour volume (T/C%) (MCF-7 mammary carcinoma [7]; d27): 27* % | Relative tumour volume (T/C%) (MCF-7 mammary carcinoma [7]; d35): 27* % | Relative tumour volume (T/C%) (MCF-7 mammary carcinoma [7]; d43): 43* % | BWC (%) (MCF-7 mammary carcinoma [7]; relative to saline treated animals): -13% | displacement of iodinated EGF from EGFR (EGFR): no ability to displace
